{
  "source": "patent US8008291B2",
  "about": "(Mimetica Pty Ltd, priority 2008, dated 2011)",
  "target": "T1, human MC5R (hMC5R) (Homo sapiens, UniProt P33032)",
  "T1 construct": "purchased Perkin Elmer RBXMC5M400UA",
  "T1 sequence (P33032 whole entry)": "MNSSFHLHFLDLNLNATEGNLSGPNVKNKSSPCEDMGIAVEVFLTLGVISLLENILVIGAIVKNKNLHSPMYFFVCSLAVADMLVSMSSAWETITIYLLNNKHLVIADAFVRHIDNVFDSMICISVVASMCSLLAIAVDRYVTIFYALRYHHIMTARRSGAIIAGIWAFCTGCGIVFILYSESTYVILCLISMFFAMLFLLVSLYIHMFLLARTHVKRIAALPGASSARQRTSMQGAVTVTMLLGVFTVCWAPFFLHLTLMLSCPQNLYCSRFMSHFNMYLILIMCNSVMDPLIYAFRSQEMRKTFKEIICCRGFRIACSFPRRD",
  "experiment": "Human MC5R radioligand binding assay (membranes, [125I] NDP-MSH displacement)",
  "details": "hMC5R binding; tested as trifluoroacetate or hydrochloride salts, or free bases; read-out: MC5R radioligand IC50",
  "how_it_was_run": "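Frozen human MC5R membranes incubated with test compound and in-house iodogen-labeled, HPLC-purified [125I]NDP-MSH for 1 hr at 37° C. Binding measured as displacement of the radioligand.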",
  "data": [
    {"smiles": "CC[C@@H](CN1CC[C@@H](CNC(=O)c2ccc3ccccc3c2)N[C@@H](CCCN)C1=O)c1ccccc1", "note": "[Compound 390, N-(((3S,5S)-3-(3-aminopropyl)-2-oxo-1-((R)-2-phenylbutyl)-1,4-diazepan-5-yl)methyl)-2-naphthamide]", "values": [
      {"measurement": "IC50", "result": "< 10000", "unit": "nM"}
    ]},
    {"smiles": "O=C(NC[C@@H]1CCN(CC(c2ccccc2)c2ccccc2)C(=O)[C@H](CCN2CCCC2)N1)c1ccc2ccccc2c1", "note": "[Compound 367, N-(((3S,5S)-1-(2,2-diphenylethyl)-2-oxo-3-(2-(pyrrolidin-1-yl)ethyl)-1,4-diazepan-5-yl)methyl)-2-naphthamide]", "values": [
      {"measurement": "IC50", "result": "< 100", "unit": "nM"}
    ]},
    {"smiles": "CCOC(=O)C(CN1CC[C@@H](CNC(=O)c2ccc3ccccc3c2)N[C@@H](CCCNC(=N)N)C1=O)c1ccccc1", "note": "(stereo partly drawn) [Compound 296, ethyl 3-((3S,5S)-5-((2-naphthamido)methyl)-3-(3-guanidinopropyl)-2-oxo-1,4-diazepan-1-yl)-2-phenylpropanoate]", "values": [
      {"measurement": "IC50", "result": "< 1000", "unit": "nM"}
    ]},
    {"smiles": "C[C@H](C(c1ccccc1)c1ccccc1)N1CC[C@@H](CNC(=O)c2ccc3ccccc3c2)N[C@@H](CCCNC(=N)N)C1=O", "note": "[Compound 204, N-(((3S,5S)-1-((R)-1,1-diphenylpropan-2-yl)-3-(3-guanidinopropyl)-2-oxo-1,4-diazepan-5-yl)methyl)-2-naphthamide]", "values": [
      {"measurement": "IC50", "result": "< 1000", "unit": "nM"}
    ]},
    {"smiles": "CCC(CC)CN1CC[C@@H](CNC(=O)c2ccc3cc(Br)ccc3c2)N[C@@H](CCN2CCCCC2)C1=O", "note": "[Compound 374, 6-bromo-N-(((3S,5S)-1-(2-ethylbutyl)-2-oxo-3-(2-(piperidin-1-yl)ethyl)-1,4-diazepan-5-yl)methyl)-2-naphthamide]", "values": [
      {"measurement": "IC50", "result": "< 100", "unit": "nM"}
    ]},
    {"smiles": "CCCCC(CC)C(=O)NC[C@@H]1CCN(CC(c2ccccc2)c2ccccc2)C(=O)[C@H](CCCNC(=N)N)N1", "note": "(stereo partly drawn) [Compound 224, N-(((3S,5S)-1-(2,2-diphenylethyl)-3-(3-guanidinopropyl)-2-oxo-1,4-diazepan-5-yl)methyl)-2-ethylhexanamide]", "values": [
      {"measurement": "IC50", "result": "< 1000", "unit": "nM"}
    ]},
    {"smiles": "O=C(NCC[C@@H]1CCN(CC(c2ccccc2)c2ccccc2)C(=O)[C@H](CCN2CCCC2)N1)c1ccc2ccccc2c1", "note": "[Compound 339, N-(2-((3S,5R)-1-(2,2-diphenylethyl)-2-oxo-3-(2-(pyrrolidin-1-yl)ethyl)-1,4-diazepan-5-yl)ethyl)-2-naphthamide]", "values": [
      {"measurement": "IC50", "result": "< 1000", "unit": "nM"}
    ]},
    {"smiles": "CC[C@H](CN1CC[C@@H](CNC(=O)c2ccc3cc(Cl)ccc3c2)N[C@@H](CCN2CCCCC2)C1=O)c1ccsc1", "note": "[Compound 511, 6-chloro-N-(((3S,5S)-2-oxo-3-(2-(piperidin-1-yl)ethyl)-1-((S)-2-(thiophen-3-yl)butyl)-1,4-diazepan-5-yl)methyl)-2-naphthamide]", "values": [
      {"measurement": "IC50", "result": "< 10", "unit": "nM"}
    ]},
    {"smiles": "CC[C@H](CN1CC[C@@H](CNC(=O)c2ccc3ccccc3c2)N[C@@H](CCN2CCCCC2)C1=O)c1ccccc1", "note": "[Compound 38, N-(((3S,5S)-2-oxo-1-((S)-2-phenylbutyl)-3-(2-(piperidin-1-yl)ethyl)-1,4-diazepan-5-yl)methyl)-2-naphthamide]", "values": [
      {"measurement": "IC50", "result": "< 100", "unit": "nM"}
    ]},
    {"smiles": "C=C(C)C(CC)CN1CC[C@@H](CNC(=O)c2ccc(Cl)c(Cl)c2)N[C@@H](CCN2CCCCC2)C1=O", "note": "(stereo partly drawn) [Compound 476, 3,4-dichloro-N-(((3S,5S)-1-(2-ethyl-3-methylbut-3-enyl)-2-oxo-3-(2-(piperidin-1-yl)ethyl)-1,4-diazepan-5-yl)methyl)benzamide]", "values": [
      {"measurement": "IC50", "result": "< 1000", "unit": "nM"}
    ]},
    {"smiles": "NCC[C@@H]1N[C@H](CNC(=O)c2ccc3cc(Cl)ccc3c2)CCN(CC(c2ccccc2)c2ccccc2)C1=O", "note": "[Compound 366, N-(((3S,5S)-3-(2-aminoethyl)-1-(2,2-diphenylethyl)-2-oxo-1,4-diazepan-5-yl)methyl)-6-chloro-2-naphthamide]", "values": [
      {"measurement": "IC50", "result": "< 100", "unit": "nM"}
    ]},
    {"smiles": "CC[C@H](CN1CC[C@@H](CNC(=O)c2ccc(Cl)c(Cl)c2)N[C@@H](CCN2CC(C)CC(C)C2)C1=O)c1ccccc1", "note": "(stereo partly drawn) [Compound 449, 3,4-dichloro-N-(((3S,5S)-3-(2-(3,5-dimethylpiperidin-1-yl)ethyl)-2-oxo-1-((S)-2-phenylbutyl)-1,4-diazepan-5-yl)methyl)benzamide]", "values": [
      {"measurement": "IC50", "result": "< 100", "unit": "nM"}
    ]},
    {"smiles": "CCCCCN(C)CC[C@@H]1N[C@H](CNC(=O)c2ccc(Cl)c(Cl)c2)CCN(C[C@@H](CC)c2ccccc2)C1=O", "note": "[Compound 444, 3,4-dichloro-N-(((3S,5S)-3-(2-(methyl(pentyl)amino)ethyl)-2-oxo-1-((S)-2-phenylbutyl)-1,4-diazepan-5-yl)methyl)benzamide]", "values": [
      {"measurement": "IC50", "result": "< 100", "unit": "nM"}
    ]},
    {"smiles": "CC[C@H](CN1CC[C@@H](CNC(=O)/C=C/c2ccc(Cl)cc2)N[C@@H](CCN2CCCCC2)C1=O)c1ccccc1", "note": "[Compound 365, (E)-3-(4-chlorophenyl)-N-(((3S,5S)-2-oxo-1-((S)-2-phenylbutyl)-3-(2-(piperidin-1-yl)ethyl)-1,4-diazepan-5-yl)methyl)acrylamide]", "values": [
      {"measurement": "IC50", "result": "< 10", "unit": "nM"}
    ]},
    {"smiles": "N=C(N)NCCC[C@@H]1N[C@H](CNC(=O)c2ccc(-c3ccccc3)cc2)CCN(CC(c2ccccc2)c2ccccc2)C1=O", "note": "[Compound 108, N-(((3S,5S)-1-(2,2-diphenylethyl)-3-(3-guanidinopropyl)-2-oxo-1,4-diazepan-5-yl)methyl)biphenyl-4-carboxamide]", "values": [
      {"measurement": "IC50", "result": "< 100", "unit": "nM"}
    ]},
    {"smiles": "C[C@H](CN1CC[C@@H](CNC(=O)c2ccc3ccccc3c2)N[C@@H](CCCN)C1=O)c1ccccc1", "note": "[Compound 356, N-(((3S,5S)-3-(3-aminopropyl)-2-oxo-1-((S)-2-phenylpropyl)-1,4-diazepan-5-yl)methyl)-2-naphthamide]", "values": [
      {"measurement": "IC50", "result": "< 1000", "unit": "nM"}
    ]},
    {"smiles": "CN(C)CC[C@@H]1N[C@H](CNC(=O)c2ccc3ccccc3c2)CCN(CC(c2ccccc2)c2ccccc2)C1=O", "note": "[Compound 358, N-(((3S,5S)-3-(2-(dimethylamino)ethyl)-1-(2,2-diphenylethyl)-2-oxo-1,4-diazepan-5-yl)methyl)-2-naphthamide]", "values": [
      {"measurement": "IC50", "result": "< 1000", "unit": "nM"}
    ]},
    {"smiles": "N=C(N)NCCC[C@@H]1N[C@H](CNC(=O)c2cc3ccccc3[nH]2)CCN(CC(c2ccccc2)c2ccccc2)C1=O", "note": "[Compound 109, N-(((3S,5S)-1-(2,2-diphenylethyl)-3-(3-guanidinopropyl)-2-oxo-1,4-diazepan-5-yl)methyl)-1H-indole-2-carboxamide]", "values": [
      {"measurement": "IC50", "result": "< 1000", "unit": "nM"}
    ]},
    {"smiles": "COc1ccccc1/C=C/C(=O)NC[C@@H]1CCN(CC(c2ccccc2)c2ccccc2)C(=O)[C@H](CCCNC(=N)N)N1", "note": "[Compound 169, (E)-N-(((3S,5S)-1-(2,2-diphenylethyl)-3-(3-guanidinopropyl)-2-oxo-1,4-diazepan-5-yl)methyl)-3-(2-methoxyphenyl)acrylamide]", "values": [
      {"measurement": "IC50", "result": "< 1000", "unit": "nM"}
    ]},
    {"smiles": "O=C(/C=C/c1ccc(F)cc1F)NC[C@@H]1CCN(CC(c2ccccc2)c2ccccc2)C(=O)[C@H](CCN2CCCCC2)N1", "note": "[Compound 400, (E)-3-(2,4-difluorophenyl)-N-(((3S,5S)-1-(2,2-diphenylethyl)-2-oxo-3-(2-(piperidin-1-yl)ethyl)-1,4-diazepan-5-yl)methyl)acrylamide]", "values": [
      {"measurement": "IC50", "result": "< 100", "unit": "nM"}
    ]},
    {"smiles": "CC(=O)N[C@H](Cc1ccc2ccccc2c1)[C@@H]1CCN(CC(c2ccccc2)c2ccccc2)C(=O)[C@H](CCCNC(=N)N)N1", "note": "[Compound 85, N—((R)-1-((3S,5S)-1-(2,2-diphenylethyl)-3-(3-guanidinopropyl)-2-oxo-1,4-diazepan-5-yl)-2-(naphthalen-2-yl)ethyl)acetamide]", "values": [
      {"measurement": "IC50", "result": "< 10000", "unit": "nM"}
    ]},
    {"smiles": "CC[C@H](CN1CC[C@@H](CNC(=O)c2ccc3ccccc3c2OC)N[C@@H](CCN2CCCCC2)C1=O)c1ccccc1", "note": "[Compound 538, 1-methoxy-N-(((3S,5S)-2-oxo-1-((S)-2-phenylbutyl)-3-(2-(piperidin-1-yl)ethyl)-1,4-diazepan-5-yl)methyl)-2-naphthamide]", "values": [
      {"measurement": "IC50", "result": "< 100", "unit": "nM"}
    ]},
    {"smiles": "N=C(N)NCCC[C@@H]1N[C@H](CNC(=O)c2ccc3ccccc3c2)CCN(Cc2cc(F)cc(F)c2)C1=O", "note": "[Compound 311, N-(((3S,5S)-1-(3,5-difluorobenzyl)-3-(3-guanidinopropyl)-2-oxo-1,4-diazepan-5-yl)methyl)-2-naphthamide]", "values": [
      {"measurement": "IC50", "result": "< 1000", "unit": "nM"}
    ]},
    {"smiles": "NCCC[C@@H]1N[C@H](CNC(=O)c2ccc3ccccc3c2)CCN(Cc2cc(F)cc(C(F)(F)F)c2)C1=O", "note": "[Compound 322, N-(((3S,5S)-3-(3-aminopropyl)-1-(3-fluoro-5-(trifluoromethyl)benzyl)-2-oxo-1,4-diazepan-5-yl)methyl)-2-naphthamide]", "values": [
      {"measurement": "IC50", "result": "< 10000", "unit": "nM"}
    ]},
    {"smiles": "NCC[C@@H]1N[C@H](CNC(=O)c2ccc(Cl)c(Cl)c2)CCN(Cc2ccc(Cl)cc2Cl)C1=O", "note": "[Compound 502, N-(((3S,5S)-3-(2-aminoethyl)-1-(2,4-dichlorobenzyl)-2-oxo-1,4-diazepan-5-yl)methyl)-3,4-dichlorobenzamide]", "values": [
      {"measurement": "IC50", "result": "< 1000", "unit": "nM"}
    ]},
    {"smiles": "CC[C@H](CN1CC[C@@H](CNC(=O)c2ccc(Cl)c(Cl)c2)N[C@@H](CCN2CCCC2)C1=O)c1ccccc1", "note": "[Compound 411, 3,4-dichloro-N-(((3S,5S)-2-oxo-1-((S)-2-phenylbutyl)-3-(2-(pyrrolidin-1-yl)ethyl)-1,4-diazepan-5-yl)methyl)benzamide]", "values": [
      {"measurement": "IC50", "result": "< 100", "unit": "nM"}
    ]},
    {"smiles": "CC(C)c1ccc(/C=C/C(=O)NC[C@@H]2CCN(CC(c3ccccc3)c3ccccc3)C(=O)[C@H](CCN3CCCCC3)N2)cc1", "note": "[Compound 396, (E)-N-(((3S,5S)-1-(2,2-diphenylethyl)-2-oxo-3-(2-(piperidin-1-yl)ethyl)-1,4-diazepan-5-yl)methyl)-3-(4-isopropylphenyl)acrylamide]", "values": [
      {"measurement": "IC50", "result": "< 100", "unit": "nM"}
    ]},
    {"smiles": "CC[C@H](CN1CC[C@@H](CNC(=O)c2ccc(-c3ccccc3)cc2)N[C@@H](CCN2CCCCC2)C1=O)c1ccccc1", "note": "[Compound 495, N-(((3S,5S)-2-oxo-1-((S)-2-phenylbutyl)-3-(2-(piperidin-1-yl)ethyl)-1,4-diazepan-5-yl)methyl)biphenyl-4-carboxamide]", "values": [
      {"measurement": "IC50", "result": "< 100", "unit": "nM"}
    ]},
    {"smiles": "CC[C@H](CN1CC[C@@H](CNC(=O)c2ccc(Cl)c(Cl)c2)N[C@@H](CCN2CCC(F)(F)CC2)C1=O)c1ccccc1", "note": "[Compound 483, 3,4-dichloro-N-(((3S,5S)-3-(2-(4,4-difluoropiperidin-1-yl)ethyl)-2-oxo-1-((S)-2-phenylbutyl)-1,4-diazepan-5-yl)methyl)benzamide]", "values": [
      {"measurement": "IC50", "result": "< 100", "unit": "nM"}
    ]},
    {"smiles": "NCC[C@@H]1N[C@H](CNC(=O)c2ccc3ccccc3c2)CCN(CC(c2ccccc2)c2ccccc2)C1=O", "note": "[Compound 260, N-(((3S,5S)-3-(2-aminoethyl)-1-(2,2-diphenylethyl)-2-oxo-1,4-diazepan-5-yl)methyl)-2-naphthamide]", "values": [
      {"measurement": "IC50", "result": "< 1000", "unit": "nM"}
    ]}
  ]
}
